Broadly, the IC50 is the midpoint of a concentration-inhibition curve.

Experimental findings from patent US8815840B2, “Carbazole and carboline kinase inhibitors” (Bristol-Myers Squibb Company, priority 2008, dated 2014) are described below.

JAK2, sequence (O60674 whole entry): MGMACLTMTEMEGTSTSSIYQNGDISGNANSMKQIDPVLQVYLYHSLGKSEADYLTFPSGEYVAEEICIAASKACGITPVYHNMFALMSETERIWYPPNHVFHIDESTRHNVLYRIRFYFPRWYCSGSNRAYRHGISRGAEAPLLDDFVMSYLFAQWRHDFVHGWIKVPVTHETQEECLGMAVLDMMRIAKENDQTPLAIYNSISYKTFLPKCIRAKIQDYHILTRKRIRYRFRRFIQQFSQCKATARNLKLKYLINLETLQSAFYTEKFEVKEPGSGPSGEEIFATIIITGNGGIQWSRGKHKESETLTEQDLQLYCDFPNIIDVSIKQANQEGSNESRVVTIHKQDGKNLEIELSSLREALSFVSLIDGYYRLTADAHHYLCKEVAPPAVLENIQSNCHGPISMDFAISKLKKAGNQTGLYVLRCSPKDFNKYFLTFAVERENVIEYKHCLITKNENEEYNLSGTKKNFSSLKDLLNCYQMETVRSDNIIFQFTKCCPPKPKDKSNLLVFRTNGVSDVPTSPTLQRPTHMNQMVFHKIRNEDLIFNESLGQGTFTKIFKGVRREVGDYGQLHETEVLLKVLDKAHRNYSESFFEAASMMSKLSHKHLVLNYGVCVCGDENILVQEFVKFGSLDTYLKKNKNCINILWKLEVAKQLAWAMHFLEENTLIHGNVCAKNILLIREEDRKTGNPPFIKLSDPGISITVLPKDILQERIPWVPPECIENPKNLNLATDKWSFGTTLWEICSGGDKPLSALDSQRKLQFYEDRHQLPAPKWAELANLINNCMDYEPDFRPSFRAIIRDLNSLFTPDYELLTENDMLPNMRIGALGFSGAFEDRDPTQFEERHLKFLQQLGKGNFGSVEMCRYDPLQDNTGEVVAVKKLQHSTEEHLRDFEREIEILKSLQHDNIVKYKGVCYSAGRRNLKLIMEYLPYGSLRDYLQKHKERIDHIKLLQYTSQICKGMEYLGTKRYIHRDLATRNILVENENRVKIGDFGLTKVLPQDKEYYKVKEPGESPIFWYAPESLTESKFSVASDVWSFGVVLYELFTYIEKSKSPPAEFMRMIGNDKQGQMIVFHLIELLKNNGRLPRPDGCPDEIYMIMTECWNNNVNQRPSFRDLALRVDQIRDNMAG

The test deals with JAK2 (Homo sapiens (Human), UniProt O60674). Nature of the test: JAK2 Tyrosine Kinase Assay. The following applies: ATP 30 μM; JAK2 1 nM; 60 min at room temperature. Type of test: biochemical. As for the experimental part:
JAK2 Tyrosine Kinase Assay
The assays were performed in V-bottom 384-well plates. […] The reaction was initiated by the combination of JAK2 with substrates and test compounds. The reaction was incubated at room temperature for 60 min. and terminated by adding 45 μl of 35 mM EDTA to each sample. The reaction mixture was analyzed on the Caliper LABCHIP® 3000 by electrophoretic separation of the fluorescent substrate and phosphorylated product. […] Compounds were dissolved at 10 mM in dimethylsulfoxide (DMSO) and evaluated at eleven concentrations, each in duplicate. IC50 values were derived by non-linear regression analysis
`NC(=O)c1cc(-c2cccc(Cl)c2)cc2c1[nH]c1ccc(C(=O)N3CCOCC3)cc12` [Example 15, 3-(3-chlorophenyl)-6-(morpholine-4-carbonyl)-9H-carbazole-1-carboxamide]: the IC50 stood at 1 nM.
Regarding `NC(=O)c1cc(-c2ccc(Cl)c(Cl)c2)cc2c1[nH]c1ccc(C(=O)N[C@@H]3CCNC3)cc12` [Example 49, 3-(3,4-dichlorophenyl)-N^6-((3R)-3-pyrrolidinyl)-9H-carbazole-1,6-dicarboxamide], the IC50 was 6 nM.
Regarding `NC(=O)c1cc(-c2ccc(Cl)c(Cl)c2)cc2c1[nH]c1ccc(C(=O)NCCN3CCOCC3)cc12` [Example 51, 3-(3,4-dichlorophenyl)-N^6-(2-(4-morpholinyl)ethyl)-9H-carbazole-1,6-dicarboxamide], the IC50 was 6 nM.
The figure for `CN(C)CCNC(=O)c1ccc2[nH]c3c(C(N)=O)cc(-c4ccc(Cl)c(Cl)c4)cc3c2c1` [Example 56, 3-(3,4-dichlorophenyl)-N^6-(2-(dimethylamino)ethyl)-9H-carbazole-1,6-dicarboxamide] is 6 nM.
Under `CN1CCN(C(=O)c2ccc3c(c2)[nH]c2c(C(N)=O)cc(-c4ccc(Cl)c(Cl)c4)cc23)CC1` [Example 61, 3-(3,4-dichlorophenyl)-7-((4-methyl-1-piperazinyl)carbonyl)-9H-carbazole-1-carboxamide] stands 6 nM.
The figure for `COc1cc(-c2cc(C(N)=O)c3[nH]c4cc(C(=O)N5CCN(C)CC5)ccc4c3c2)ccc1NC(=O)OC(C)(C)C` [Example 73, tert-butyl (4-(1-carbamoyl-7-((4-methyl-1-piperazinyl)carbonyl)-9H-carbazol-3-yl)-2-methoxyphenyl)carbamate] is 160 nM; for `CN1CCN(C(=O)c2ccc3c(c2)[nH]c2c(C(N)=O)cc(-c4ccc(Cl)nc4)cc23)CC1` [Example 76, 3-(6-chloro-3-pyridinyl)-7-((4-methyl-1-piperazinyl)carbonyl)-9H-carbazole-1-carboxamide] it is 7 nM; for `COc1ccc(-c2cc(C(N)=O)c3[nH]c4cc(C(=O)N5CCN(C)CC5)ccc4c3c2)cc1F` [Example 79, 3-(3-fluoro-4-methoxyphenyl)-7-((4-methyl-1-piperazinyl)carbonyl)-9H-carbazole-1-carboxamide] it is 6 nM.
Consider `CN1CCN(C(=O)c2ccc3c(c2)[nH]c2c(C(N)=O)cc(-c4ccccc4)cc23)CC1` [Example 80, 7-((4-methyl-1-piperazinyl)carbonyl)-3-phenyl-9H-carbazole-1-carboxamide], for which the IC50 was 6 nM.
`COc1cccc(-c2cc(C(N)=O)c3[nH]c4cc(C(=O)N5CCN(Cc6cccnc6)CC5)ccc4c3c2)c1` [Example 88, 3-(3-methoxyphenyl)-7-((4-(3-pyridinylmethyl)-1-piperazinyl)carbonyl)-9H-carbazole-1-carboxamide]: the IC50 worked out at 6 nM.
The figure for `COc1cccc(-c2cc(C(N)=O)c3[nH]c4cc(C(=O)N(C)CCS(C)(=O)=O)ccc4c3c2)c1` [Example 96, 3-(3-methoxyphenyl)-N^7-methyl-N^7-(2-(methylsulfonyl)ethyl)-9H-carbazole-1,7-dicarboxamide] is less than 1 nM; for `COCCCN1CCN(C(=O)c2ccc3c(c2)[nH]c2c(C(N)=O)cc(-c4cccc(OC)c4)cc23)CC1` [Example 106, 3-(3-methoxyphenyl)-7-((4-(3-methoxypropyl)-1-piperazinyl)carbonyl)-9H-carbazole-1-carboxamide] it is less than 1 nM.
The figure for `COc1cccc(-c2cc(C(N)=O)c3[nH]c4cc(C(=O)N5C[C@@H]6C[C@H]5CO6)ccc4c3c2)c1` [Example 124, 3-(3-methoxyphenyl)-7-((1S,4S)-2-oxa-5-azabicyclo[2.2.1]hept-5-ylcarbonyl)-9H-carbazole-1-carboxamide] is 6 nM.
In the case of `CNC(=O)c1cc(-c2ccc(OC)cc2)nc2c1[nH]c1cc(OC)ccc12` [Example 128, 7-Methoxy-2-(4-methoxyphenyl)-N-methyl-5H-pyrido[3,2-b]indole-4-carboxamide], the IC50 was found to be 1230 nM.
Under `COc1ccc(-c2cc(C(N)=O)c3[nH]c4nc(OC)ccc4c3n2)cc1` [Example 129, 7-Methoxy-2-(4-methoxyphenyl)-5H-pyrido[2′,3′:4,5]pyrrolo[2,3-b]pyridine-4-carboxamide] stands 110 nM; under `COc1cccc(-c2cc(C(N)=O)c3[nH]c4cc(NC(=O)OCCN)ccc4c3c2)c1` [Example 132, 2-aminoethyl (8-carbamoyl-6-(3-methoxyphenyl)-9H-carbazol-2-yl)carbamate], 7 nM; under `CC(C)Oc1ccc2[nH]c3c(C(N)=O)cc(-c4ccc(Cl)c(Cl)c4)cc3c2c1` [Example 140, 3-(3,4-Dichlorophenyl)-6-isopropoxy-9H-carbazole-1-carboxamide], 150 nM.
The figure for `COC(=O)c1ccc2c(c1)[nH]c1c(C(N)=O)cc(-c3cccc(OC)c3)cc12` [Example 142, Methyl 8-carbamoyl-6-(3-methoxyphenyl)-9H-carbazole-2-carboxylate] is 310 nM; for `COC(=O)c1cccc2[nH]c3c(C(N)=O)cc(-c4cccc(OC)c4)cc3c12` [Example 143, Methyl 8-carbamoyl-6-(3-methoxyphenyl)-9H-carbazole-4-carboxylate] it is 110 nM.
Take `NC(=O)c1cc(-c2ccc(OC(F)(F)F)cc2)cc2c1[nH]c1cc(C(=O)N3CCOCC3)ccc12` [Example 151, 7-(4-morpholinylcarbonyl)-3-(4-(trifluoromethoxy)phenyl)-9H-carbazole-1-carboxamide]: the IC50 was determined as 6 nM.
The figure for `COc1ccc(-c2cc(C(N)=O)c3[nH]c4ccc(C(=O)N5CCOCC5)cc4c3c2)cc1OC` [Example 166, 3-(3,4-dimethoxyphenyl)-6-(4-morpholinylcarbonyl)-9H-carbazole-1-carboxamide] is 6 nM; for `NC(=O)c1cc(-c2ccc(Cl)c(Cl)c2)cc2c1[nH]c1ccc(C(=O)N3CCOC(CO)C3)cc12` (centres unmarked) [Example 180, 3-(3,4-dichlorophenyl)-6-(2-(hydroxymethyl)morpholine-4-carbonyl)-9H-carbazole-1-carboxamide] it is 2 nM.
Under `COc1cc(-c2cc(C(N)=O)c3[nH]c4ccc(C(=O)N5CCOC(CO)C5)cc4c3c2)cc(OC)c1OC` (centres unmarked) [Example 183, 6-(2-(hydroxymethyl)morpholine-4-carbonyl)-3-(3,4,5-trimethoxyphenyl)-9H-carbazole-1-carboxamide] stands 160 nM; under `NC(=O)c1cc(-c2cccc(Cl)c2)cc2c1[nH]c1ccc(C(=O)N3CCOC(CO)C3)cc12` (centres unmarked) [Example 185, 3-(3-chlorophenyl)-6-(2-(hydroxymethyl)morpholine-4-carbonyl)-9H-carbazole-1-carboxamide], 1 nM; under `COc1ccc(-c2cc(C(N)=O)c3[nH]c4ccc(C(=O)N5CCC[C@H](O)C5)cc4c3c2)cc1F` [Example 190, (S)-3-(3-fluoro-4-methoxyphenyl)-6-(3-hydroxypiperidine-1-carbonyl)-9H-carbazole-1-carboxamide], 2 nM.
Under `COc1ccc(-c2cc(C(N)=O)c3[nH]c4ccc(C(=O)N5C[C@@H]6C[C@H]5CO6)cc4c3c2)cc1F` [Example 196, 6-((1S,4S)-2-oxa-5-azabicyclo[2.2.1]heptane-5-carbonyl)-3-(3-fluoro-4-methoxyphenyl)-9H-carbazole-1-carboxamide] stands 1 nM.
